Laboratory results from patent US12486218B2, “Compounds advantageous in the treatment of central nervous system diseases and disorders” (AurimMed Pharma, Inc., priority 2008, dated 2025).

How the values were obtained:
[1] = test system: mice; experiment: Effects observed in mice after i.p. injection (CNS stimulation, diarrhea); format: in vivo; settings: 30 minutes after i.p. injection of 100 mg/kg
Method: In addition, two further tertiary amide compounds, BJ and BT, produced diarrhea in the mice 30 minutes after i.p. injection of 100 mg/kg of each.

[2] = test system: rats; experiment: MES test, rats p.o.; format: in vivo; settings: at 30 mg/kg
[3] = test system: mice; experiment: 6 Hz (minimal clonic seizure) model, mice i.p.; format: in vivo; settings: for activity in the 6 Hz (minimal clonic seizure) model: mice, at 100 mg/kg; for 6 Hz (32 mA), fraction of animals: mice i.p.
[4] = test system: mice; experiment: Maximal Electroshock Seizure (MES) test, mice i.p.; format: in vivo; settings: for ED50: Mus musculus, ip; for activity in the MES test: at 100 mg/kg
[5] = in vivo; settings: mouse, ip
Method: (§1) The animal testing was performed according to methods known in the relevant art.

[6] = test system: SMN2 promoter; experiment: SMN2 promoter β-lactamase reporter assay in NSC34 motor neuron-like cells; format: cell-based; settings: for Promoter (SMN2 promoter test, summary YES/NO): Table 13 summary; for SMN2 promoter activity: treatment for 19 hours at a concentration of 1 μM
Method: FIG. 30 illustrates a screen for SMN2 expression of a number of compounds described herein.
SMN2 promoter activity was measured using NSC34 motor neuron-like cells stably transfected with a β-lactamase (BLA) reporter gene under the control of a 3.4-kilobase fragment of the SMN2 promoter. D156844 was used as a positive control for this assay.

[7] = test system: mice; experiment: Subcutaneous Metrazol Seizure threshold (s.c. MET) test, mice i.p.; format: in vivo; settings: for ED50: Mus musculus
[8] = test system: rat dopaminergic N27 cells; experiment: N27 protection assay against oxidative stress (H2O2 or MPP+; MTT and LDH); format: cell-based; settings: drug 24 hours before 200 μM H2O2 or 640 μM MPP+
Description: FIGS. 20A-25D data are shown illustrating neuroprotective and neuroregenerative effects observed in rat dopaminergic N27 cells. Rat dopaminergic N27 cells are commonly used in in vitro and in vivo model systems for studying Parkinson's disease. Parkinson's disease is a neurodegenerative disorder of the central nervous system that affects more than 6 million people worldwide. The motor symptoms of Parkinson's disease result from the death of dopamine generating cells in the substantia nigra, a region of the midbrain.
The N27 rat dopaminergic neuron cell line was harvested from E12 rat mesencephalic tissue and was transfected with SV40 to immortalize the cell line. The N27 cell line, when injected into the striata of 6-hydroxydopamine-lesioned rats (an animal model of PD) caused a time-dependent improvement in neurological deficits. This immortalized cell line has been carefully characterized in studies of dopamine biosynthesis, neurotoxicity and used as a dopaminergic neuron model studies.
The N27 in vitro Parkinson's disease model included a test of cell viability and cell toxicity in response to exposure to oxidative stress (e.g., either 200 μM H2O2 or 640 μM MPP+).
Cell viability was tested using the MTT assay. The MTT assay is a colorimetric analysis based on the activities of mitochondrial NAD(P)H-dependent cellular oxidoreductase enzymes. These enzymes are capable of reducing the tetrazolium dye, MTT [3-(4,5-dimethylthiazol-2-yl)-2,5-diphenyltetrazolium] bromide, to an insoluble formazan (purple). […] More viable cells equal more accumulation of the insoluble formazan dye.
Cell toxicity was tested using the […] (LDH) assay. Cells that are stressed secrete LDH. In general, the more cells are stressed, the LDH they secrete into their media. The LDH assay is a reliable colorimetric assay to measure quantitatively the […] (LDH) that is released into the cell culture media from damaged cells as a biomarker for cytotoxicity and cytolysis.
FIGS. 20A-25D present data from two types of assays: protection and recovery assays. In the protection assays, the drug candidate was applied to the cells at various concentrations for 24 hours, followed by the exposure to oxidative stress (either 200 μM H2O2 or 640 μM MPP+) for measuring neuroprotective effect. H2O2 provides a broad measure of oxidative stress, while MPP+ gives a more specific oxidative stress to dopaminergic neurons.
The protection assay results are shown in panels A-C of FIGS. 20-25 In the recovery assays, the cells were first damaged by exposure to H2O2 and then various concentrations of the drug were applied to the cells. The results for the recovery assays are shown the D panels of FIGS. 20-25.

[9] = test system: rats; experiment: Pilocarpine-induced Status Epilepticus in Rats (prevention; intervention @ 30 min); settings: Rattus norvegicus
Method: The animal testing was performed using the protocols developed in the Anticonvulsant Screening Program (ASP) at the National Institute of Neurological Disorders and Stroke (NINDS), National Institutes of Health (NIH).

[10] = test system: type II SMA fibroblasts (GM03813); experiment: SMN protein localization, gem counting in type II SMA fibroblasts; format: cell-based; settings: 100 nM-10 μM, 5 days
Method: To validate the SMN2 promoter and exon 7 screens, the effects of compounds H, H (acid form), AY, F, BX, and BY were evaluated on the basis of expression and localization of SMN protein in type II SMA fibroblasts (GM03813). In a normal cell, SMN protein localized within the nucleus to discreet foci known as gems. In SMN-deficient SMA cells, the number of gems is greatly diminished. Although the function of gems is unknown, it is believed that they are somehow involved in the snRNP assembly function of SMN. Gem counting can, therefore, be considered an assay for SMN function.
GM03813 fibroblasts were treated with different doses (100 nM-10 μM) of compounds H, H (acid form), AY, F, BX, and BY for 5 days. SMN immunostaining was then completed on these cells and the number of gems was counted in 100 randomly-selected nuclei. […] In fact, the gem counts at the highest dose of compound H approach those observed for carrier fibroblasts (GM03814). When compared against treatment with 1 μM D157495—a D156844 derivative, all of the compounds tested performed as well as or, even better than D157495.

[11] = test system: C3A hepatocyte cells; experiment: ACTIVTox LDH release assay; format: cell-based
Method: Compounds A, I, H, and F were tested by Stem Cell Innovations, Inc. (Houston, TX) in their ACTIVTox® Human Liver Cell-based assays (using C3A hepatocyte cells). Specifically, the compounds were tested in the LDH release assay, which determines the release of Lactate DeHydrogenase (an indicator of cell death) at various concentrations of test compound.
A concentration of 100 µM of test compound is a much higher level of exposure to liver cells than would ever be expected under physiological conditions. Therefore, using 100 μM as a standard test concentration (for comparative purposes), the ratio of the absorbance (which measures the level of LDH release) resulting from the presence of the test compound versus the negative control is a value known as the “average (or mean) fold control” (Average Fold Control=Average of Absorbance/Average of Negative Control).

[12] = test system: mice; experiment: Minimal motor impairment (MID50), mice i.p.
Method: as §1

[13] = test system: mice; experiment: Corneal kindled mouse model; format: in vivo; settings: mice i.p.
[14] = test system: C3A hepatocyte cells; experiment: ACTIVTox Cell Proliferation Assay; format: cell-based; settings: at a concentration of 100 μM
[15] = read-out: Prevention, Protection

Compound: CC(CC(=O)N1CCCC(C(N)=O)C1)c1ccc(OC(F)(F)F)cc1 (centres unmarked) [BT, 1-[3-(4-Trifluoromethoxy-phenyl)-butyryl]-piperidine-3-carboxylic acid amide]
- effect produced in the mice [1]: diarrhea

Compound: CCC(CC(N)=O)c1ccc(C(F)(F)F)cc1 (centres unmarked) [Compound AA, 3-(4-Trifluoromethylphenyl)-pentanamide]
- activity in the MES test [2]: activity
- activity in the 6 Hz (minimal clonic seizure) model [3]: activity
- ED50 ([4]; mice i.p., @ 0.5 hrs): 86.6 mg/kg
- activity in the MES test ([4]; mice): activity
- TD50 at 0.25 hr [5]: 142 mg/kg
- SMN2 promoter assay, particularly strong hits ([6]; NSC34 BLA reporter cells): particularly strong hits
- Promoter (SMN2 promoter test, summary YES/NO) [6]: YES
- SMN2 promoter activity [6]: increased SMN2 promoter activity
- ED50 ([7]; mice i.p., @ 0.5 hrs): 149 mg/kg
- activity in the s.c. MET test ([7]; mice, at 300 mg/kg): activity
- neuroprotective effect against H2O2 and MPP+ oxidative stresses (MTT and LDH assays) [8]: statistically significant, dose-dependent neuroprotection

Compound: CC(CC(N)=O)c1ccc(N2CCOCC2)cc1 (centres unmarked) [Compound AY, 3-(4-Morpholin-4-yl-phenyl)-butyramide]
- responders at 600 mg/kg [9, 15]: 38%
- 6 Hz (32 mA), fraction of animals ([3]; 100 mg/kg @ 1.0 hr): 1/4
- activity in the 6 Hz (minimal clonic seizure) model [3]: activity
- SMN2 promoter activity [6]: increased SMN2 promoter activity
- gem counts (SMN immunostaining, 100 nuclei) [10]: increase gem counts in a dose-dependent manner

Compound: CC(CC(N)=O)c1cccc(OC(F)(F)F)c1 (centres unmarked) [I, 3-[3-(trifluoromethoxy)-phenyl]butyramide]
- activity in the MES test [2]: activity
- responders at 130 mg/kg ([9]; 0.5 h, read-out: Intervention @ 30 min, Protection): 100%
- responders at 65 mg/kg [9, 15]: 86%
- 6 Hz (32 mA), fraction of animals ([3]; 50 mg/kg @ 0.25 hr): 3/4
- 6 Hz (32 mA), fraction of animals ([3]; 50 mg/kg @ 0.5 hr): 2/4
- 6 Hz (32 mA), fraction of animals ([3]; 100 mg/kg @ 4.0 hr): 2.0 and 1/4
- ED50 ([4]; mice): < 100 mg/kg
- MES, fraction of animals ([4]; mice i.p., 100 mg/kg @ 0.5 hr): 3/3 @0.5,
- MES, fraction of animals ([4]; mice i.p., 100 mg/kg @ 4.0 hr): 3/3 @ 4.0 hr
- ED50 ([7]; mice, i.p.): ≤ 100 mg/kg
- s.c. MET, fraction of animals ([7]; mice i.p., 100 mg/kg @ 0.5 hr): 1/1 @0.5,
- s.c. MET, fraction of animals ([7]; mice i.p., 100 mg/kg @ 4.0 hr): 1/5 @ 4.0 hr
- LDH release, mean fold control ([11]; at 100 μM, C3A hepatocyte cells, value below 1.75 = no cyto- or hepatotoxic activity): 1.03
- cyto- or hepatotoxicity, ACTIVTox data ([11]; at physiologically relevant concentrations (i.e., <100 µM)): not cyto- or hepatotoxic
- MID50, fraction of animals ([12]; mice i.p., 100 mg/kg @ 0.5 hr): 8/8 @0.50 hr,
- MID50 (median minimal motor impairment dose) ([12]; mice, i.p.): <100 mg/kg
- Corneal Kindled, Average seizure score ([13]; 100 mg/kg @ 0.5 hr): score is 0:
- Corneal Kindled, fraction of animals ([13]; 100 mg/kg @ 0.5 hr): 4/4 @
- Cell Proliferation Assay, mean fold control [14]: 1.25
- toxicity to proliferating cells [14]: non-toxic

Compound: NC(=O)CC(c1ccc(Cl)cc1)C1CC1 (centres unmarked) [X, 3-(4-Chloro-phenyl)-3-cyclopropyl-propionamide]
- activity in the MES test [2]: activity
- 6 Hz (32 mA), fraction of animals ([3]; 75 mg/kg @ 1.0 hr): 4/4
- 6 Hz (32 mA), fraction of animals ([3]; 75 mg/kg @ 2.0 hr): 2/4
- 6 Hz (32 mA), fraction of animals ([3]; 75 mg/kg @ 4.0 hr): 1/4 @
- activity in the MES test ([4]; mice): activity
- Promoter (SMN2 promoter test, summary YES/NO) [6]: YES
- SMN2 promoter activity [6]: increased SMN2 promoter activity
- activity in the s.c. MET test ([7]; mice, at 300 mg/kg): activity
- neuroprotective effect against H2O2 and MPP+ oxidative stresses (MTT and LDH assays) [8]: statistically significant, dose-dependent neuroprotection
- Corneal Kindled, Average seizure score ([13]; 100 mg/kg @ 0.25 hr): score is 3:
- Corneal Kindled, fraction of animals ([13]; 100 mg/kg @ 0.25 hr): 2/4 @

Compound: NC(=O)CC(c1ccc(F)cc1)C1CC1 (centres unmarked) [Y, 3-Cyclopropyl-3-(4-fluoro-phenyl)propionamide]
- responders at 65 mg/kg [9, 15]: 88%
- activity in the 6 Hz (minimal clonic seizure) model [3]: activity
- activity in the MES test ([4]; mice): activity
- SMN2 promoter activity [6]: increased SMN2 promoter activity
- s.c. MET, fraction of animals ([7]; mice i.p., 100 mg/kg @ 0.5 hr): 2/5 @0.5 hrs,
- activity in the s.c. MET test ([7]; mice, at 100 mg/kg): activity
- Corneal Kindled, Average seizure score ([13]; 100 mg/kg @ 0.25 hr): 0: (0, 0,
- Corneal Kindled, fraction of animals ([13]; 100 mg/kg @ 0.25 hr): 4/4 @
